#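 Five compound concentrations were applied to cells in 96-well plates for 48 hours; endpoints were derived by simple linear interpolation of the resulting dose-response curve. TGI: total growth inhibition.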
# Key:
# Test in all cases: growth of human tumour cells (NCI), 48 h
# [1] = test system: 786-0 renal
# [2] = test system: A498 renal
# [3] = test system: A549 NSCLC
# [4] = test system: ACHN renal
# [5] = test system: BT-549 breast
# [6] = test system: CAKI-1 renal
# [7] = test system: CCRF-CEM leukemia
# [8] = test system: COLO 205 colon
# [9] = test system: DU-145 prostate
# [10] = test system: EKVX NSCLC
# [11] = test system: HCC-2998 colon
# [12] = test system: HCT-116 colon
# [13] = test system: HCT-15 colon
# [14] = test system: HOP-62 NSCLC
# [15] = test system: HOP-92 NSCLC
# [16] = test system: HS 578T breast
# [17] = test system: HT29 colon
# [18] = test system: IGROV1 ovarian
# [19] = test system: K-562 leukemia
# [20] = test system: KM12 colon
# [21] = test system: LOX IMVI melanoma
# [22] = test system: M14 melanoma
# [23] = test system: MCF7 breast
# [24] = test system: MDA-MB-231 breast
# [25] = test system: MDA-MB-435
# [26] = test system: MDA-N
# [27] = test system: NCI-H226 lung
# [28] = test system: NCI-H23 lung
# [29] = test system: NCI-H460 lung
# [30] = test system: NCI-H522 lung
# [31] = test system: NCI/ADR-RES ovarian
# [32] = test system: OVCAR-3 ovarian
# [33] = test system: OVCAR-4 ovarian
# [34] = test system: OVCAR-5 ovarian
# [35] = test system: OVCAR-8 ovarian
# [36] = test system: PC-3 prostate
# [37] = test system: RPMI-8226 leukemia
# [38] = test system: SF-268 CNS
# [39] = test system: SF-295 CNS
# [40] = test system: SK-MEL-2 melanoma
# [41] = test system: SK-MEL-28 melanoma
# [42] = test system: SK-MEL-5 melanoma
# [43] = test system: SK-OV-3 ovarian
# [44] = test system: SN12C renal
# [45] = test system: SNB-19 CNS
# [46] = test system: SNB-75 CNS
# [47] = test system: SW-620 colon
# [48] = test system: T-47D breast
# [49] = test system: TK-10 renal
# [50] = test system: U251 CNS
# [51] = test system: UACC-257 melanoma
# [52] = test system: UACC-62 melanoma
# [53] = test system: UO-31 renal
# [54] = test system: HL-60(TB) leukemia
# [55] = test system: MALME-3M melanoma
# [56] = test system: RXF 393 renal
# [57] = test system: SF-539 CNS
smiles,measurement,setting,value
COC(=O)C(C)(C)NC(=O)C(Cc1ccccc1)Nc1ncnc2c1ncn2-c1ccc(OC)cc1 (centres undefined),TGI,[1],> 100 µM
same,TGI,[2],72.7 µM
same,TGI,[3],> 100 µM
same,TGI,[4],> 100 µM
same,TGI,[5],98.6 µM
same,TGI,[6],> 100 µM
same,TGI,[7],35.8 µM
same,TGI,[8],> 100 µM
same,TGI,[9],> 100 µM
same,TGI,[10],45.6 µM
same,TGI,[11],> 100 µM
same,TGI,[12],> 100 µM
same,TGI,[13],> 100 µM
same,TGI,[14],> 100 µM
same,TGI,[15],58.2 µM
same,TGI,[16],79.8 µM
same,TGI,[17],46.6 µM
same,TGI,[18],> 100 µM
same,TGI,[19],> 100 µM
same,TGI,[20],96.7 µM
same,TGI,[21],> 100 µM
same,TGI,[22],> 100 µM
same,TGI,[23],72.4 µM
same,TGI,[24],> 100 µM
same,TGI,[25],32 µM
same,TGI,[26],43.9 µM
same,TGI,[27],> 100 µM
same,TGI,[28],> 100 µM
same,TGI,[29],73.5 µM
same,TGI,[30],34.2 µM
same,TGI,[31],> 100 µM
same,TGI,[32],> 100 µM
same,TGI,[33],> 100 µM
same,TGI,[34],> 100 µM
same,TGI,[35],> 100 µM
same,TGI,[36],> 100 µM
same,TGI,[37],> 100 µM
same,TGI,[38],> 100 µM
same,TGI,[39],> 100 µM
same,TGI,[40],> 100 µM
same,TGI,[41],> 100 µM
same,TGI,[42],> 100 µM
same,TGI,[43],> 100 µM
same,TGI,[44],> 100 µM
same,TGI,[45],> 100 µM
same,TGI,[46],69.1 µM
same,TGI,[47],54.1 µM
same,TGI,[48],58.2 µM
same,TGI,[49],> 100 µM
same,TGI,[50],> 100 µM
same,TGI,[51],> 100 µM
same,TGI,[52],> 100 µM
same,TGI,[53],> 100 µM
COC(=O)[C@]1(C)CCC[C@]2(C)[C@H]3CC[C@]4(C(C)C)OO[C@@H](O4)[C@]34O[C@@H]4C[C@H]21,TGI,[1],3.49 µM
same,TGI,[3],3.56 µM
same,TGI,[4],1.75 µM
same,TGI,[5],10.9 µM
same,TGI,[6],0.927 µM
same,TGI,[7],> 100 µM
same,TGI,[8],5.2 µM
same,TGI,[9],3.07 µM
same,TGI,[10],3.71 µM
same,TGI,[11],4.88 µM
same,TGI,[12],3.03 µM
same,TGI,[13],7.06 µM
same,TGI,[54],4.88 µM
same,TGI,[14],7 µM
same,TGI,[15],4.14 µM
same,TGI,[16],8.65 µM
same,TGI,[17],3.91 µM
same,TGI,[18],0.336 µM
same,TGI,[19],> 100 µM
same,TGI,[20],11.2 µM
same,TGI,[21],1.04 µM
same,TGI,[22],17.3 µM
same,TGI,[55],20.5 µM
same,TGI,[23],5.75 µM
same,TGI,[24],15 µM
same,TGI,[25],3.89 µM
same,TGI,[26],6.13 µM
same,TGI,[27],13.5 µM
same,TGI,[28],23.5 µM
same,TGI,[29],3.88 µM
same,TGI,[30],3.43 µM
same,TGI,[31],30.9 µM
same,TGI,[32],3.65 µM
same,TGI,[33],3.73 µM
same,TGI,[34],16.3 µM
same,TGI,[35],26.5 µM
same,TGI,[36],3.11 µM
same,TGI,[37],> 100 µM
same,TGI,[56],11.6 µM
same,TGI,[38],5.31 µM
same,TGI,[39],8.77 µM
same,TGI,[57],> 55.6 µM
same,TGI,[40],29.1 µM
same,TGI,[41],> 63.9 µM
same,TGI,[42],8.02 µM
same,TGI,[43],4.83 µM
same,TGI,[44],12 µM
same,TGI,[45],24.5 µM
same,TGI,[46],11.2 µM
same,TGI,[47],> 33.7 µM
same,TGI,[48],3.84 µM
same,TGI,[49],12.2 µM
same,TGI,[50],13.5 µM
same,TGI,[51],32.1 µM
same,TGI,[52],17.7 µM
same,TGI,[53],1.46 µM
Brc1cccc(Nc2ncnc3sc4c(c23)CCC2(C4)OCCO2)c1,TGI,[1],> 100 µM
same,TGI,[2],42 µM
same,TGI,[3],> 100 µM
same,TGI,[4],> 100 µM
same,TGI,[5],75.2 µM
same,TGI,[6],> 100 µM
same,TGI,[8],35.6 µM
same,TGI,[9],50.1 µM
same,TGI,[10],> 100 µM
same,TGI,[11],72.1 µM
same,TGI,[12],> 100 µM
same,TGI,[13],> 100 µM
same,TGI,[14],> 100 µM
same,TGI,[15],48.6 µM
same,TGI,[16],> 100 µM
same,TGI,[17],> 100 µM
same,TGI,[18],30.9 µM
same,TGI,[20],80.4 µM
same,TGI,[21],40.9 µM
same,TGI,[22],68.6 µM
same,TGI,[55],> 100 µM
same,TGI,[23],> 100 µM
same,TGI,[24],> 100 µM
same,TGI,[25],87 µM
same,TGI,[26],> 100 µM
same,TGI,[27],77.6 µM
same,TGI,[28],> 100 µM
same,TGI,[29],> 100 µM
same,TGI,[30],33.8 µM
same,TGI,[31],76.4 µM
same,TGI,[32],> 100 µM
same,TGI,[33],94.5 µM
same,TGI,[34],> 100 µM
same,TGI,[35],> 100 µM
same,TGI,[36],> 100 µM
same,TGI,[38],> 100 µM
same,TGI,[39],> 100 µM
same,TGI,[40],79.7 µM
same,TGI,[42],32.3 µM
same,TGI,[43],> 100 µM
same,TGI,[44],> 100 µM
same,TGI,[45],> 100 µM
same,TGI,[46],80.9 µM
same,TGI,[47],28.9 µM
same,TGI,[48],40.9 µM
same,TGI,[49],68.9 µM
same,TGI,[50],> 100 µM
same,TGI,[51],91.4 µM
same,TGI,[52],70.5 µM
same,TGI,[53],> 100 µM

# — PubChem BioAssay (NCI)
